Data taken from the supplement of paper PMC11061612.

Legend:
MK-2206 = compound: NC1(c2ccc(-c3nc4ccn5c(=O)[nH]nc5c4cc3-c3ccccc3)cc2)CCC1 [MK-2206]; settings: max 10 µM
In short: (§1)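 Following 24 hours at 37°C and 5% CO2, cancer cell lines in 1536-well plates with 7.5 μl DMEM/F12 or RPMI and 10% FBS were dosed for 72 hours, final DMSO typically being 0.2%. CellTiter-Glo 2.0 luminescence, scaled between blank-well and DMSO-well means, gave the viability readout. Dose responses were fitted to a two-parameter logistic curve with a non-linear mixed effects model, and the single-agent IC50 was derived from this fit.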

AZD2811 = compound: CCN(CCO)CCCOc1ccc2c(Nc3cc(CC(=O)Nc4cccc(F)c4)[nH]n3)ncnc2c1 [AZD2811]; settings: max 1 µM
In short: as §1

AZD5991 = compound: Cc1c2c(nn1C)CSCc1cc(n(C)n1)CSc1cc(c3ccccc3c1)OCCCc1c(C(=O)O)n(C)c3c-2c(Cl)ccc13 [AZD5991]; settings: max 1 µM
In short: as §1

Gefitinib = compound: COc1cc2ncnc(Nc3ccc(F)c(Cl)c3)c2cc1OCCCN1CCOCC1 [Gefitinib]; settings: max 10 µM
In short: as §1

AZD5153 = compound: COc1nnc2ccc(N3CCC(c4ccc(OCCN5CCN(C)C(=O)[C@H]5C)cc4)CC3)nn12 [AZD5153]; settings: max 1 µM
In short: as §1

SN-38 = compound: CCc1c2c(nc3ccc(O)cc13)-c1cc3c(c(=O)n1C2)COC(=O)[C@]3(O)CC [SN-38]; settings: max 0.3 µM
In short: as §1

Lapatinib = compound: CS(=O)(=O)CCNCc1ccc(-c2ccc3ncnc(Nc4ccc(OCc5cccc(F)c5)c(Cl)c4)c3c2)o1 [Lapatinib]; settings: max 10 µM
In short: as §1

Prexasertib = compound: COc1cccc(OCCCN)c1-c1cc(Nc2cnc(C#N)cn2)n[nH]1 [Prexasertib]; settings: max 1 µM
In short: as §1

Doxorubicin = compound: COc1cccc2c1C(=O)c1c(O)c3c(c(O)c1C2=O)C[C@@](O)(C(=O)CO)C[C@@H]3O[C@H]1C[C@H](N)[C@H](O)[C@H](C)O1 [Doxorubicin]; settings: max 1 µM
In short: as §1

AZD7648 = compound: Cc1cc2ncnn2cc1Nc1ncc2c(n1)n(C1CCOCC1)c(=O)n2C [AZD7648]; settings: max 10 µM
In short: as §1

[1] = compound: O=C(Nc1ccc2[nH]nc(-c3ccncc3)c2c1)[C@@H]1CCN(CC(=O)N2CCN(c3ccc(-c4ncccn4)cc3)CC2)C1; settings: max 5 µM
In short: as §1

SRA737 = compound: N#Cc1cnc(Nc2cc(NC[C@H]3CNCCO3)c(C(F)(F)F)cn2)cn1 [SRA737]; settings: max 10 µM
In short: as §1

Gemcitabine = compound: Nc1ccn([C@@H]2O[C@H](CO)[C@@H](O)C2(F)F)c(=O)n1 [Gemcitabine]; settings: max 0.3 µM
In short: as §1

5-Fluorouracil = compound: O=c1[nH]cc(F)c(=O)[nH]1 [5-Fluorouracil]; settings: max 20 µM
In short: as §1

Venetoclax = compound: CC1(C)CCC(CN2CCN(c3ccc(C(=O)NS(=O)(=O)c4ccc(NCC5CCOCC5)c([N+](=O)[O-])c4)c(Oc4cnc5[nH]ccc5c4)c3)CC2)=C(c2ccc(Cl)cc2)C1 [Venetoclax]; settings: max 1 µM
In short: as §1

Dasatinib = compound: CC1=C(C(=CC=C1)Cl)NC(=O)C2=CN=C(S2)NC3=CC(=NC(=N3)C)N4CCN(CC4)CCO [Dasatinib]; settings: max 2 µM
In short: as §1

Crizotinib = compound: C[C@@H](Oc1cc(-c2cnn(C3CCNCC3)c2)cnc1N)c1c(Cl)ccc(F)c1Cl [Crizotinib]; settings: max 10 µM
In short: as §1

Paclitaxel = compound: CC(=O)O[C@H]1C(=O)[C@@]2(C)[C@H]([C@H](OC(=O)c3ccccc3)[C@]3(O)C[C@H](OC(=O)[C@H](O)[C@@H](NC(=O)c4ccccc4)c4ccccc4)C(C)=C1C3(C)C)[C@]1(OC(C)=O)CO[C@@H]1C[C@@H]2O [Paclitaxel]; settings: max 3 µM
In short: as §1

AZD6738 = compound: C[C@@H]1COCCN1C2=NC(=NC(=C2)C3(CC3)[S@](=N)(=O)C)C4=C5C=CNC5=NC=C4 [AZD6738]; settings: max 10 µM
In short: as §1

Taselisib = compound: Cc1nc(-c2cn3c(n2)-c2ccc(-c4cnn(C(C)(C)C(N)=O)c4)cc2OCC3)n(C(C)C)n1 [Taselisib]; settings: max 10 µM
In short: as §1

Etoposide = compound: COc1cc([C@@H]2c3cc4c(cc3[C@@H](O[C@@H]3O[C@@H]5CO[C@@H](C)O[C@H]5[C@H](O)[C@H]3O)[C@H]3COC(=O)[C@H]23)OCO4)cc(OC)c1O [Etoposide]; settings: max 10 µM
In short: as §1

AZD4320 = compound: CN(CC[C@H](CSC1=CC=CC=C1)NC2=C(C=C(C=C2)S(=O)(=O)NC(=O)C3=CC=C(C=C3)N4CCC(CC4)[C@H](C5=CC=CC=C5C6=CC=C(C=C6)Cl)O)S(=O)(=O)C(F)(F)F)CCO [AZD4320]; settings: max 1 µM
In short: as §1

AZD0156 = compound: CN(C)CCCOc1ccc(-c2ccc3ncc4c(c3c2)n(C2CCOCC2)c(=O)n4C)cn1 [AZD0156]; settings: max 3 µM
In short: as §1

Savolitinib = compound: C[C@@H](c1ccc2nccn2c1)n1nnc2ncc(-c3cnn(C)c3)nc21 [Savolitinib]; settings: max 1 µM
In short: as §1

Selumetinib = compound: Cn1cnc2c(F)c(Nc3ccc(Br)cc3Cl)c(C(=O)NOCCO)cc21 [Selumetinib]; settings: max 10 µM
In short: as §1

AZD5363 = compound: C1CN(CCC1(C(=O)N[C@@H](CCO)C2=CC=C(C=C2)Cl)N)C3=NC=NC4=C3C=CN4 [AZD5363]; settings: max 10 µM
In short: as §1

Alisertib = compound: COc1cc(Nc2ncc3c(n2)-c2ccc(Cl)cc2C(c2c(F)cccc2OC)=NC3)ccc1C(=O)O [Alisertib]; settings: max 10 µM
In short: as §1

SG3199 = compound: CC1=CN2[C@@H](C1)C=NC3=CC(=C(C=C3C2=O)OC)OCCCCCOC4=C(C=C5C(=C4)N=C[C@@H]6CC(=CN6C5=O)C)OC [SG3199]; settings: max 0.001 µM
In short: as §1

AZD1390 = compound: CC(C)n1c(=O)n(C)c2cnc3cc(F)c(-c4ccc(OCCCN5CCCCC5)nc4)cc3c21 [AZD1390]; settings: max 0.3 µM
In short: as §1

Trametinib = compound: CC(=O)Nc1cccc(-n2c(=O)n(C3CC3)c(=O)c3c(Nc4ccc(I)cc4F)n(C)c(=O)c(C)c32)c1 [Trametinib]; settings: max 1 µM
In short: as §1

Palbociclib = compound: CC(=O)c1c(C)c2cnc(Nc3ccc(N4CCNCC4)cn3)nc2n(C2CCCC2)c1=O [Palbociclib]; settings: max 10 µM
In short: as §1

AZD8186 = compound: C[C@@H](Nc1cc(F)cc(F)c1)c1cc(C(=O)N(C)C)cc2c(=O)cc(N3CCOCC3)oc12 [AZD8186]
In short: as §1

Carboplatin = compound: C1CC(C1)(C(=O)[O-])C(=O)[O-].N.N.[Pt+2] [Carboplatin]; settings: max 10 µM
In short: as §1

AZD1775 = compound: C=CCn1c(=O)c2cnc(Nc3ccc(N4CCN(C)CC4)cc3)nc2n1-c1cccc(C(C)(C)O)n1 [AZD1775]; settings: max 3 µM
In short: as §1

Olaparib = compound: O=C(c1cc(Cc2n[nH]c(=O)c3ccccc23)ccc1F)N1CCN(C(=O)C2CC2)CC1 [Olaparib]; settings: max 10 µM
In short: as §1

Capivasertib = compound: C1CN(CCC1(C(=O)N[C@@H](CCO)C2=CC=C(C=C2)Cl)N)C3=NC=NC4=C3C=CN4 [Capivasertib]; settings: max 10 µM
In short: as §1

Cell Line | IC50, cell viability 72 h (MK-2206) | IC50, cell viability 72 h (AZD2811) | IC50, cell viability 72 h (AZD5991) | IC50, cell viability 72 h (Gefitinib) | IC50, cell viability 72 h (AZD5153) | IC50, cell viability 72 h (SN-38) | IC50, cell viability 72 h (Lapatinib) | IC50, cell viability 72 h (Prexasertib) | IC50, cell viability 72 h (Doxorubicin) | IC50, cell viability 72 h (AZD7648) | IC50, cell viability 72 h [1] | IC50, cell viability 72 h (SRA737) | IC50, cell viability 72 h (Gemcitabine) | IC50, cell viability 72 h (5-Fluorouracil) | IC50, cell viability 72 h (Venetoclax) | IC50, cell viability 72 h (Dasatinib) | IC50, cell viability 72 h (Crizotinib) | IC50, cell viability 72 h (Paclitaxel) | IC50, cell viability 72 h (AZD6738) | IC50, cell viability 72 h (Taselisib) | IC50, cell viability 72 h (Etoposide) | IC50, cell viability 72 h (AZD4320) | IC50, cell viability 72 h (AZD0156) | IC50, cell viability 72 h (Savolitinib) | IC50, cell viability 72 h (Selumetinib) | IC50, cell viability 72 h (AZD5363) | IC50, cell viability 72 h (Alisertib) | IC50, cell viability 72 h (SG3199) | IC50, cell viability 72 h (AZD1390) | IC50, cell viability 72 h (Trametinib) | IC50, cell viability 72 h (Palbociclib) | IC50, cell viability 72 h (AZD8186; max 10 µM) | IC50, cell viability 72 h (Carboplatin) | IC50, cell viability 72 h (AZD1775) | IC50, cell viability 72 h (Olaparib) | IC50, cell viability 72 h (Capivasertib) | IC50, cell viability 72 h (AZD8186; max 3 µM)
A375 (Melanoma) | > 10 µM | > 1 µM | > 1 µM | > 10 µM | > 1 µM | 0.0074 µM | > 10 µM | 0.21 µM | 0.265 µM | > 10 µM | 0.538 µM | > 10 µM | 0.00974 µM | > 20 µM | > 1 µM | > 2 µM | > 10 µM | 0.042 µM | 9.24 µM | > 10 µM | 2.61 µM | > 1 µM | > 3 µM | > 1 µM | 0.693 µM | > 10 µM | 8.15 µM | > 0.001 µM | > 0.3 µM | 0.0126 µM | > 10 µM | > 10 µM | > 10 µM | 0.813 µM | > 10 µM | – | –
JJN-3 (Plasma Cell Myeloma) | > 10 µM | > 1 µM | 0.0495 µM | > 10 µM | 0.0476 µM | 0.163 µM | > 10 µM | 0.0274 µM | 0.994 µM | > 10 µM | – | – | – | – | > 1 µM | > 2 µM | > 10 µM | – | 5.74 µM | > 10 µM | – | 0.866 µM | > 3 µM | > 1 µM | > 10 µM | – | > 10 µM | > 0.001 µM | > 0.3 µM | > 1 µM | > 10 µM | – | – | 0.654 µM | > 10 µM | > 10 µM | > 3 µM
NCI-H835 (Other Solid Carcinomas) | > 10 µM | > 1 µM | > 1 µM | > 10 µM | > 1 µM | > 0.3 µM | > 10 µM | > 1 µM | > 1 µM | > 10 µM | > 5 µM | > 10 µM | > 0.3 µM | > 20 µM | > 1 µM | > 2 µM | 9.99 µM | 2.77 µM | > 10 µM | 5.25 µM | > 10 µM | 0.218 µM | > 3 µM | > 1 µM | > 10 µM | > 10 µM | – | > 0.001 µM | > 0.3 µM | > 1 µM | > 10 µM | > 10 µM | > 10 µM | 1.1 µM | > 10 µM | – | –
